Source: patent US20260108503A1, “POLYMERIC MICELLE NANOCARRIERS FOR TARGETED EPIDERMAL DELIVERY OF THE HEDGEHOG PATHWAY INHIBITOR TAK-441” (UNIVERSITÉ DE GENÈ DE GENÈVE, priority 2022, published 2026)
“Also recorded” adds a separate entry of the source.

Assays:
[1] = human, in vivo; cited from earlier work
[2] = Determination of TAK-441 content in the micelles (UHPLC-MS/MS); format: physicochemical; conditions: incorporation of TAK-441 in TPGS micelles
Procedure: TAK-441 loaded into the micelles was quantified by UHPLC-MS/MS. To ensure complete micelle destruction and release of the incorporated drug, formulations were diluted in acetonitrile and analyzed. The drug content, drug loading, and entrapment efficiency were calculated using equations 1-3: […]

[3] = Cutaneous delivery and biodistribution in vitro, Franz-type diffusion cells, porcine skin; format: in vitro ADME; conditions: 12 h application
Excerpt: Porcine ears were purchased from a local abattoir (CARRE; Rolle, Switzerland) shortly after sacrifice. After washing under running cold water, skin samples with a thickness of approximately 0.8 mm were carefully harvested from the outer region of the ear using a Zimmer air dermatome (Münsingen, Switzerland). Hair was removed from the skin surface using clippers. Discs corresponding to the permeation area were punched out (Berg & Schmid HK 500; Urdorf, Switzerland). Skin samples were frozen at −20° C. and stored for a maximum period of 3 months. Before the experiment, skin samples were thawed at room temperature and placed for 15 min in 0.9% saline solution for rehydration. […]
(§1) TAK-441 had the least solubility in HPC; this characteristic would minimize the risk of interference of the suspending agent on drug delivery. […] After centrifugation at 10,000 rpm for 15 min, the permeation samples were analyzed by UHPLC-MS/MS. […]
Upon completion of the experiment, a punch was used to separate the skin sample into two parts—an inner disk with a surface area of 0.785 cm^2 and a remaining outer ring with an area of 1.215 cm^2. This outer ring was subsequently cut into small pieces, and TAK-441 deposited in the tissue was extracted by the validated extraction method (section 1.4.5.2) followed by quantification using UHPLC-MS/MS. […]

[4] = Cutaneous delivery and biodistribution in vitro, Franz-type diffusion cells, human skin; format: in vitro ADME
Procedure: Human skin samples were obtained shortly after surgery from the Department of Plastic, Aesthetic and Reconstructive Surgery, Geneva University Hospital (Geneva, Switzerland), fatty tissue was removed and the skin was stored at −20° C. The donation was approved by the Central Committee for Ethics in Research (CER: 08-150 (NAC08-051); Geneva University Hospital).
The experiments were performed using standard two-compartment vertical (Franz-type) diffusion cells, (Milian SA; Meyrin, Switzerland) with a cross-sectional area of 2 cm^2. The receptor compartment consisted of 10-mL Dulbecco's phosphate-buffered saline (DPBS) pH 7.4 containing 1% BSA to maintain sink conditions. The receiver compartment was maintained between 32° C.-34° C. For infinite dose conditions, 200 μL of TAK-441 micelle formulation (3 mg/mL) was applied to the skin sample surface (i.e., 300 μg of TAK-441/cm^2 of the skin surface) and for finite dose, 20 μL of micelle formulation (3 mg/mL) was applied (30 μg of TAK-441/cm^2 of the skin surface). […]
as §1
Upon completion of the experiment, a punch was used to separate the skin sample into two parts—an inner disk with a surface area of 0.785 cm^2 and a remaining outer ring with an area of 1.215 cm^2. This outer ring was subsequently cut into small pieces, and TAK-441 deposited in the tissue was extracted by the validated extraction method (section 1.4.5.2) followed by quantification using UHPLC-MS/MS.
The 0.785-cm^2 disks were used to determine the TAK-441 biodistribution as a function of depth in the skin. […] These lamellae enabled the amounts of TAK-441 to be determined as a function of position in the skin, encompassing the stratum corneum, epidermis, and upper dermis, respectively. Each lamella and the remaining dermis were individually extracted in 250-μL methanol for 4 h and TAK-441 was quantified by UHPLC-MS/MS.

HH pathway = conditions: NIH3T3 cells, Gli-reporter luciferase; read-out: IC50, inhibition of the hedgehog pathway; cited from earlier work
[5] = molecular target: vismodegib-resistant SMO mutant D473H (Homo sapiens, UniProt Q99835, D473H); conditions: cited from earlier work
[6] = cited from earlier work
Gli1 expression = conditions: oral, all doses (50 mg/day to 1600 mg/day); cited from earlier work
[7] = cited from earlier work; remark: listed apart in the source

vismodegib-resistant SMO mutant D473H, sequence (Q99835 28-787 D473H): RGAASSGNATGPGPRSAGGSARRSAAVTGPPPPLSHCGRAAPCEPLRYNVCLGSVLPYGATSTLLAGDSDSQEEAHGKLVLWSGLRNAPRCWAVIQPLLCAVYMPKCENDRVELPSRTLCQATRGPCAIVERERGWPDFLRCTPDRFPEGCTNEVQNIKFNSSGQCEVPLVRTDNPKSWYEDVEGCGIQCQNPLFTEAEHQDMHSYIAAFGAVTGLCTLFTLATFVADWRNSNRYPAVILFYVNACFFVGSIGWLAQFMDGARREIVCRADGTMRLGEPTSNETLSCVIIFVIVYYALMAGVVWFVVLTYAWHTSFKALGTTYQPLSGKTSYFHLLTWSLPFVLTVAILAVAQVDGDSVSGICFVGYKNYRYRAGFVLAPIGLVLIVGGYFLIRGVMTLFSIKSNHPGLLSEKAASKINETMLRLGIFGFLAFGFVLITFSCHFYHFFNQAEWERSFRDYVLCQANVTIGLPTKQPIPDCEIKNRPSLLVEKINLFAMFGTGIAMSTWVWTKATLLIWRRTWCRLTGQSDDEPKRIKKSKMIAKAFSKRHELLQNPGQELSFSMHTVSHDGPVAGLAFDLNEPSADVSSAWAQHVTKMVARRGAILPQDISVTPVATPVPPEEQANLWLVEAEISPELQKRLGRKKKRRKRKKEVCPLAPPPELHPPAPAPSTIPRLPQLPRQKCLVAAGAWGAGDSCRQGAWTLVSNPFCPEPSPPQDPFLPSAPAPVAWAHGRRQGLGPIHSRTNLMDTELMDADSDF

Row | Compound | treatment outcome in patients with resistance to vismodegib [1] | increase of aqueous solubility [2] | cumulative permeation (receiver compartment below LOD) [3] [pg/cm^2] | cumulative permeation ([4]; conclusion, corresponding to LOD) [pg/cm^2] | concentrations in the permeation samples (below LOD) ([4]; conclusion, permeation samples, UHPLC-MS/MS) [ng/mL] | transdermal permeation across human skin ([4]; human skin, 12 h application) | IC50 (HH pathway) [nM] | activity against vismodegib-resistant Smoothened receptor D473H mutant [5] | log P [6] | Gli1 expression in skin biopsies (Gli1 expression) | death assessed to be study drug-related ([7]; cerebral hemorrhage, patient with pancreatic cancer) | patients who experienced at least one adverse effect (AE) ([7]; oral, Phase I) | patients who experienced serious AE ([7]; oral, Phase I)
1 | Cc1c(C(=O)Nc2ccc(N3C[C@@H](C)O[C@@H](C)C3)nc2)cccc1-c1ccc(OC(F)(F)F)cc1 [sonidegib] | ineffective | – | – | – | – | – | – | – | – | – | – | – | –
2 | CCc1cc2c(c(OCC(F)(F)F)c(C(=O)NC3CCN(C(=O)CO)CC3)n2C)c(=O)n1CC(=O)c1ccccc1 [TAK-441] | – | approximately 40 fold | < 0.1 | < 0.1 | < 1.29 | below the LOD | 4.4 | active; also recorded: effective | 2.61 | strongly inhibited | One death | All patients | Approximately 35%
